Measurements reported in patent US12421254B2, “KRAS modulators and uses thereof” (Quanta Therapeutics, Inc., priority 2023, dated 2025).

What was measured:
[1] = target: GST-tagged KRAS-G12V (2-169) (Homo sapiens, UniProt P01116, G12V); assay: Nucleotide exchange assay (NEA), SOS-mediated, HTRF, KRAS G12V; type: biochemical; details: Table 4; IC50 extracted at 90 min; 80 nM SOS
Procedure, shortened: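 GST-KRAS-G12V (2-169), 0.25 nM, pre-incubated 1 h at RT with compound, then SOS1cat (564-1049) 80 nM and GTP-DY-647P1 150 nM added in HEPES pH 7.3 buffer with MgCl2 and DTT. HTRF via anti-GST Tb cryptate read over 90 min; IC50 from 4-parameter fit at 90 min, blanked to no-SOS reactions.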

[2] = system: phospho-ERK in SW620 (KRAS-G12V) cells; assay: pERK In Cell Western (ICW) assay (Method B), SW620; type: cell-based; details: Homo sapiens, SW-620, 3 h, Table 4
Procedure, shortened: (§1)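 SW620 (KRAS-G12V), GP2D (KRAS-G12D) and AGS cells, seeded overnight, were exposed to compounds (½-log, 9-point) for 3 h at 37°C, then fixed and stained for phospho-ERK. Infrared imaging; pERK normalized to DRAQ5 DNA stain, expressed as percent of blank control, IC50 by 4-parameter fit.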

[3] = target: GST-tagged KRAS-G12D (2-169) (Homo sapiens, UniProt P01116, G12D); assay: Nucleotide exchange assay (NEA), SOS-mediated, HTRF, KRAS G12D; type: biochemical; details: Table 4; IC50 extracted at 30 min; 20 nM SOScat; read-out: NEA G12D IC50
Chain of GST-tagged KRAS-G12D (2-169) (P01116 2-169 isoform P01116-2 G12D): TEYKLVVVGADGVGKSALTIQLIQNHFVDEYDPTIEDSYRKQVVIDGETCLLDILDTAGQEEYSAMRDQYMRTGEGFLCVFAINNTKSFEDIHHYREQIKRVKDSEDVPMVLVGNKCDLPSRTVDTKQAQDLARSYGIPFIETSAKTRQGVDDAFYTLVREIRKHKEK
Procedure, shortened: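 Compound preincubated 1 h at RT with 0.25 nM GST-KRAS-G12D (2-169) and anti-GST Tb donor, then 20 nM SOS1cat (564-1049) and 150 nM GTP-DY-647P1 added; pH 7.3 HEPES buffer with MgCl2 and DTT. HTRF monitored at RT; % inhibition versus DMSO and no-SOS blank, 4-parameter IC50 taken at 30 min.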

[4] = system: phospho-ERK in GP2D (KRAS-G12D) cells; assay: pERK In Cell Western (ICW) assay (Method B), GP2D; type: cell-based; details: GP2d, 3 h, Table 4
Procedure, shortened: as §1

Chain of GST-tagged KRAS-G12V (2-169) (P01116 2-169 isoform P01116-2 G12V): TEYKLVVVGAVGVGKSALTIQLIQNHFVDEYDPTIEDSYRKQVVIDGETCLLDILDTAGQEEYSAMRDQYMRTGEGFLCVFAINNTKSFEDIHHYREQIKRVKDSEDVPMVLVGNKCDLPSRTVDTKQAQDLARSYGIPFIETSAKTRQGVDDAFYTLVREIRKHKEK

Row | SMILES | IC50 [1] | IC50 [2] | IC50 [3] | IC50 [4]
1 | N#Cc1c(N)sc2c1C1(CN(c3nc(OC[C@@]45CCCN4C[C@H](F)C5)nc(Oc4ccnnc4)n3)C1)SC2 [Compound 169, 2-amino-1′-[4-[[(2R,8S)-2-fluoro-1,2,3,5,6,7-hexahydropyrrolizin-8-yl]methoxy]-6-pyridazin-4-yloxy-1,3,5-triazin-2-yl]spiro[6H-thieno[2,3-c]thiophene-4,3′-azetidine]-3-carbonitrile] | 100 to 1000 nM | 1000 to 20000 nM | 1000 to 20000 nM | 1000 to 20000 nM
2 | CCN(c1nc(OCC23CCCN2CCN(C)C3)nc(N2CC3(C2)SCc2sc(N)c(C#N)c23)n1)[C@H](C)c1cccnc1N (stereo partly drawn) [Compound 223, 2-amino-1′-[4-[[(1R)-1-(2-amino-3-pyridyl)ethyl]-ethyl-amino]-6-[(2-methyl-1,3,4,6,7,8-hexahydropyrrolo[1,2-a]pyrazin-8a-yl)methoxy]-1,3,5-triazin-2-yl]spiro[6H-thieno[3,4-b]thiophene-4,3′-azetidine]-3-carbonitrile] | < 10 nM | 10 to 100 nM | < 10 nM | 10 to 100 nM
3 | CCN(c1nc(OCC(C)N(C)C)nc(N2CC3(C2)SCc2sc(N)c(C#N)c23)n1)[C@H](C)c1cccnc1N (stereo partly drawn) [Compound 177, 2-amino-1′-[4-[[(1R)-1-(2-amino-3-pyridyl)ethyl]-ethyl-amino]-6-[2-(dimethylamino)propoxy]-1,3,5-triazin-2-yl]spiro[6H-thieno[3,4-b]thiophene-4,3′-azetidine]-3-carbonitrile] | < 10 nM | 100 to 1000 nM | 10 to 100 nM | 100 to 1000 nM
4 | CC1(O)CCCCN(c2nc(OC[C@@]34CCCN3C[C@H](F)C4)nc(N3CC4(CCc5sc(N)c(C#N)c54)C3)n2)C1 (stereo partly drawn) [Compound 48, 2-amino-1′-[4-(3-hydroxy-3-methyl-azepan-1-yl)-6-[[(2R,8S)-2-fluoro-1,2,3,5,6,7-hexahydropyrrolizin-8-yl]methoxy]-1,3,5-triazin-2-yl]spiro[5,6-dihydrocyclopenta[b]thiophene-4,3′-azetidine]-3-carbonitrile] | < 10 nM | 100 to 1000 nM | 10 to 100 nM | 100 to 1000 nM
5 | CC1(C#N)CCCCN(c2nc(OC[C@@]34CCCN3C[C@H](F)C4)nc(N3CC4(CCc5sc(N)c(C#N)c54)C3)n2)C1 (stereo partly drawn) [Compound 111, 2-amino-1′-[4-(3-cyano-3-methyl-azepan-1-yl)-6-[[(2R,8S)-2-fluoro-1,2,3,5,6,7-hexahydropyrrolizin-8-yl]methoxy]-1,3,5-triazin-2-yl]spiro[5,6-dihydrocyclopenta[b]thiophene-4,3′-azetidine]-3-carbonitrile] | < 10 nM | 100 to 1000 nM | < 10 nM | 100 to 1000 nM
6 | C[C@@]1(O)C[C@H](O)CN(c2nc(OC[C@@]34CCCN3C[C@H](F)C4)nc(N3CC4(CCc5sc(N)c(C#N)c54)C3)n2)C1 [Compound 67, 2-amino-1′-[4-[(3R,5S)-3,5-dihydroxy-3-methyl-1-piperidyl]-6-[[(2R,8S)-2-fluoro-1,2,3,5,6,7-hexahydropyrrolizin-8-yl]methoxy]-1,3,5-triazin-2-yl]spiro[5,6-dihydrocyclopenta[b]thiophene-4,3′-azetidine]-3-carbonitrile] | 10 to 100 nM | ≥ 20000 nM | 10 to 100 nM | 100 to 1000 nM
7 | CC(c1ccns1)N(C)c1nc(OC[C@@]23CCCN2C[C@H](F)C3)nc(N2CC3(CCc4sc(N)c(C#N)c43)C2)n1 (stereo partly drawn) [Compound 158, 2-amino-1′-[4-[[(2R,8S)-2-fluoro-1,2,3,5,6,7-hexahydropyrrolizin-8-yl]methoxy]-6-[1-isothiazol-5-ylethyl(methyl)amino]-1,3,5-triazin-2-yl]spiro[5,6-dihydrocyclopenta[b]thiophene-4,3′-azetidine]-3-carbonitrile] | < 10 nM | 100 to 1000 nM | 100 to 1000 nM | 1000 to 20000 nM
